Experiments:
cholesterol metabolism = conditions: cited from earlier work
[1] = biological target: T1, human intestinal alkaline phosphatase (hIAP) (Homo sapiens, UniProt P09923); test: SPR competition of IIAEK binding to hIAP by PLP; conditions: IIAEK 297 μM, PLP 0, 1000 and 2000 μM, HBS-N pH 7.4
T1 sequence (P09923 20-503 limits assumed): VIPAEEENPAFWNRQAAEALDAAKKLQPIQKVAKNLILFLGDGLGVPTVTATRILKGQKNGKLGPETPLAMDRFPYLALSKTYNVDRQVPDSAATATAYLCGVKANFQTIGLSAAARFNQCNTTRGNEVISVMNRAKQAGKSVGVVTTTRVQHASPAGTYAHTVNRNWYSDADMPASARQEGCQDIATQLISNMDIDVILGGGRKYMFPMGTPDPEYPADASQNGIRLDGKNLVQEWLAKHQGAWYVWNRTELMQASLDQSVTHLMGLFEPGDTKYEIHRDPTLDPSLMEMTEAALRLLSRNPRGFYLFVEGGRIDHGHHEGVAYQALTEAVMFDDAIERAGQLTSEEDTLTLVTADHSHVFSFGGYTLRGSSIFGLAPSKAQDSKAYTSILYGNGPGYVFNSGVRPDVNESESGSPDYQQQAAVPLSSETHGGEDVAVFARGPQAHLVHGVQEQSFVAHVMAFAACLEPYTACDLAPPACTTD

DPP4 = conditions: read-out: dissociation constant (Kd) with DPP4; cited from earlier work
hepatic NPC1L1 = conditions: cited from earlier work
mouse liver = conditions: cited from earlier work

Compound | improvement of cholesterol metabolism in animal studies (cholesterol metabolism) | also measured
VHVV | effectively improve cholesterol metabolism | 
VFVRN | effectively improve cholesterol metabolism | 
GEQQQPGM | effectively improve cholesterol metabolism | 
Cc1ncc(COP(=O)(O)O)c(C=O)c1O [PLP, Pyridoxal 5′-phosphate] |  | competition with IIAEK for hIAP [1]: competes for the interaction between IIAEK and hIAP in a concentration-dependent manner
VAWWMY | effectively improve cholesterol metabolism | 
HIRL | effectively improve cholesterol metabolism | 
GLP-1: DPP4 substrate |  | Kd (DPP4): 153 µM
VSEE | effectively improve cholesterol metabolism | 
O=C1[C@H](CC[C@H](O)c2ccc(F)cc2)[C@@H](c2ccc(O)cc2)N1c1ccc(F)cc1 [ezetimibe] |  | hepatic NPC1L1-induced hepatic lipids accumulation (hepatic NPC1L1): eliminated; hepatic mRNA levels of Hmgcr and Srebf2 (mouse liver): increasing hepatic mRNA levels of Hmgcr and Srebf2; liver cholesterol levels (mouse liver): decreases liver cholesterol levels

Reference: publication PMC12217679 (Scientific Reports, 2025)
